The subject of assay [1] is nicotine craving in smokers abstinent for 72 hours from cigarettes. In words: QSU-Brief nicotine craving questionnaire, repeated-dose three-period crossover enforced abstinence study. Format: in vivo, human. To be noted: 31 smoker volunteers; 120 mg/day intravenously for 7 days; 72 hours of abstinence from Day 5; FIG. 1. The protocol:
The ability of the compound of formula (I) or pharmaceutically acceptable salts thereof to reduce nicotine craving in smokers was measured by means of self-administered questionnaires on Smoking Craving/Urge-Brief (QSU-Brief), as described by Tiffany S T, & Christen A G Cox L S, Nicotine and Tobacco Research, 3: 7-16, 2001. The QSU-Brief is a specific craving scale that consists of 10 items scored on a scale from 1 to 7. The higher average score corresponds to the higher intensity of nicotine craving. The QSU-Brief has 2 factors: factor 1 refers to the anticipation of pleasure from smoke and factor 2 refers to anticipation of relief from negative affects of abstinence. A further study investigated nicotine craving in smokers abstinent for 72 hours from cigarettes (enforced abstinence model) receiving either repeated administrations of the compound of formula (I) as meglumine salt (Compound) or placebo. […] Each subject was exposed to 3 different experimental conditions: 1) Compound (120 mg/day) was administered intravenously for 7 days starting on Day 1 and quitted smoking abruptly on Day 5 for 72 hours (i.e. non-smoking period;) 2) Placebo was administered intravenously for 7 days starting on Day 1 and quitted smoking abruptly on Day 5 for 72 hours (i.e. non-smoking period;) 3) allowed to smoke for 7 consecutive days (i.e. free smoking period). […]

Assay [2] concerns nicotine craving in smokers abstinent for 3 days from cigarettes. In words: QSU-Brief nicotine craving questionnaire, single-dose enforced abstinence study. Particulars: single dose 120 mg iv. Format: in vivo, human. Here is the method:
The ability of the compound of formula (I) or pharmaceutically acceptable salts thereof to reduce nicotine craving in smokers was measured by means of self-administered questionnaires on Smoking Craving/Urge-Brief (QSU-Brief), as described by Tiffany S T, & Christen A G Cox L S, Nicotine and Tobacco Research, 3: 7-16, 2001. The QSU-Brief is a specific craving scale that consists of 10 items scored on a scale from 1 to 7. The higher average score corresponds to the higher intensity of nicotine craving. The QSU-Brief has 2 factors: factor 1 refers to the anticipation of pleasure from smoke and factor 2 refers to anticipation of relief from negative affects of abstinence. The study investigated nicotine craving in smokers abstinent for 3 days from cigarettes (enforced abstinence model) receiving either a single dose 120 mg iv of the compound of formula (I) as meglumine salt (Compound) or a single dose of placebo. Self-administered questionnaires (QSU-Brief), were administered at pre-dose and 3, 6 and 12 hours post dose to evaluate craving.

“Also recorded” adds a separate entry of the source. Where a name gives a salt, the structure may show the parent alone.

Turning to `O=C(O)[C@H]1C/C(=C2/CCN(c3ccccc3)C2=O)c2ccc(Cl)cc2N1` [Compound, (2R,4E)-7-chloro-4-(2-oxo-1-phenyl-3-pyrrolidinylidene)-1,2,3,4-tetrahydro-2-quinolinecarboxylic acid, (2R,3R,4R,5S)-6-methylamino-hexane-1,2,3,4,5-pentanol (meglumine) salt (form 2)], in assay [1], the “Nicotine craving level (QSU-Brief) compared with placebo” value was “showed reduction in nicotine craving; also recorded: reduced the nicotine craving level”. In addition, the “QSU-Brief: Craving Factor 2 (average during abstinence)” value in assay [2] (QSU-Brief items scored 1 to 7, pre-dose and 3, 6 and 12 hours post dose, placebo 4.0) is 3.6. Moreover, the “Average craving factor 2 compared with placebo” value in assay [2] (versus abstinent smokers receiving placebo) is “significant average lower craving factor 2”.
